Where two headings read alike, the source gives them in different places.
Experiments:
HCT-8 = assay: Soft agar colony formation, human colon adenocarcinoma cells; format: cell-based; conditions: HCT-8, 336 h, read-out: Inhibition of Human Colon Adenocarcinoma IC50, HCT-8
Method: (§1) Three such human cell lines were identified as HCT-8, SW-620, and HT-29. In a typical assay, the cells are suspended in 0.3% soft agar containing an invention compound at various concentration levels, and are plated into six-well plates, each plate containing a 1% agar plug. The cell plates are incubated at 37°C in a humidified carbon dioxide (5%) incubator, generally for 2 weeks. At the end of the incubation period, colonies of cells are detected by staining the wells with 1 mg/mL of p-iodonitrotetrazolium violet. The cells are counted on an optical colony counter. […] TABLE III. Inhibition of Human Colon Adenocarcinoma IC50 (µM)

[1] = biological target: T1, Human EGF receptor tyrosine kinase (Homo sapiens, UniProt P00533); assay: EGF receptor tyrosine kinase enzyme assay (substrate peptide phosphorylation); format: biochemical; conditions: for IC50: read-out: EGF-FL IC50; for inhibition at 50 µM: read-out: EGF-FL % Inhibition at 50 µM
T1 construct: Human EGF receptor tyrosine kinase was isolated from A431 epidermoid carcinoma cells; endogenous in cells; host or cells: A431 epidermoid carcinoma cells
T1 sequence (P00533 25-1210): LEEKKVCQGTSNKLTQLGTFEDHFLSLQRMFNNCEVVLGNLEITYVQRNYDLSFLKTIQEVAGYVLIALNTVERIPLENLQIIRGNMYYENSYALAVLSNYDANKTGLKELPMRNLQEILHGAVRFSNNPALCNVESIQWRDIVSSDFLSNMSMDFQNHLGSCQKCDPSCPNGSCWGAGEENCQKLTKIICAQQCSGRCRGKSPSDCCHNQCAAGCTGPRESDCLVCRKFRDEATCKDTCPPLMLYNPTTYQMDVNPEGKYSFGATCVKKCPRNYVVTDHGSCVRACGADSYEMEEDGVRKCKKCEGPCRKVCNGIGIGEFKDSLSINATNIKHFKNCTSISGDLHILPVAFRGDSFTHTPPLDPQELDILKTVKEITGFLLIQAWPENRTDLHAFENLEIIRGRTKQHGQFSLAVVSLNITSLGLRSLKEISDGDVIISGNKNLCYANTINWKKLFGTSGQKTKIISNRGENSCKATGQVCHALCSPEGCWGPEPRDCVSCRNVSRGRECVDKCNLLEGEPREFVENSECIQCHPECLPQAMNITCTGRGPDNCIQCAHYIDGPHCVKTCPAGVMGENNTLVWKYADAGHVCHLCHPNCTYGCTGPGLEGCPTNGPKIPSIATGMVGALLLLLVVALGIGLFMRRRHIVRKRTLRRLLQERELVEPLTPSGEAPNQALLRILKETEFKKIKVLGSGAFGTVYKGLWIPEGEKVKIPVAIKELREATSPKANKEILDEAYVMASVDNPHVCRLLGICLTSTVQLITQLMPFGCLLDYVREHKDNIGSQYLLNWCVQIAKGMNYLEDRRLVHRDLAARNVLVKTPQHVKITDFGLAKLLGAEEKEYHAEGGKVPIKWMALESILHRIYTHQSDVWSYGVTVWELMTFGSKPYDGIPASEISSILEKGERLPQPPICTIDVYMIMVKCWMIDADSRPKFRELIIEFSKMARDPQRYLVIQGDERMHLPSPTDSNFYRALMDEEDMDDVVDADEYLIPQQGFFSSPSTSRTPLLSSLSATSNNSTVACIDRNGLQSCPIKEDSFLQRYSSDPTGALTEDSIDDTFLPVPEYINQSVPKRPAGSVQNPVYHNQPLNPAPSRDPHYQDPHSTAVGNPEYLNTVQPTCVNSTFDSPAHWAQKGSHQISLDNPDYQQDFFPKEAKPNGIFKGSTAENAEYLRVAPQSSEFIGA
Method: Human EGF receptor tyrosine kinase was isolated from A431 epidermoid carcinoma cells by the following methods. Cells were grown in roller bottles in 50% Dulbecco's Modified Eagle medium and 50% HAM F-12 nutrient media (Gibco) containing 10% fetal calf serum. Approximately 10^9 cells were lysed in two volumes of buffer containing 20 mM 2-(4N-[2-hydroxymethyl]-piperazin-1-yl)ethanesulfonic acid, pH 7.4, 5 mM ethylene glycol bis(2-aminoethyl ether) N,N,N',N'-tetraacetic acid, 1% Triton X-100, 10% glycerol, 0.1 mM sodium orthovanadate, 5 mM sodium fluoride, 4 mM pyrophosphate, 4 mM benzamide, 1 mM dithiothreitol, 80 µg/mL aprotinin, 40 µg/mL leupeptin, and 1 mM phenylmethylsulfonyl fluoride. […] Contaminating proteins were washed from the resin with 1 M NaCl in equilibration buffer, and the enzyme was eluted with 0.5 M N-acetyl-1-D-glucosamine in equilibration buffer.
The reaction was terminated by the addition of 2 mL of 75 mM phosphoric acid and passed through a 2.5-cm phosphocellulose filter disc to bind the peptide. The filter was washed 5 times with 75 mM phosphoric acid and placed in a vial along with 5 mL of scintillation fluid (Ready gel Heckman).

[2] = biological target: T2, human FGF-1 (flg) receptor tyrosine kinase (Homo sapiens, UniProt P11362); assay: FGF receptor tyrosine kinase assay (32P incorporation into glutamate-tyrosine co-polymer); format: biochemical
T2 construct: amplify a fragment of DNA that codes for the intracellular tyrosine kinase domain; made in house; host or cells: SF9 insect cells (baculovirus)
T2 sequence (P11362 478-767 limits assumed): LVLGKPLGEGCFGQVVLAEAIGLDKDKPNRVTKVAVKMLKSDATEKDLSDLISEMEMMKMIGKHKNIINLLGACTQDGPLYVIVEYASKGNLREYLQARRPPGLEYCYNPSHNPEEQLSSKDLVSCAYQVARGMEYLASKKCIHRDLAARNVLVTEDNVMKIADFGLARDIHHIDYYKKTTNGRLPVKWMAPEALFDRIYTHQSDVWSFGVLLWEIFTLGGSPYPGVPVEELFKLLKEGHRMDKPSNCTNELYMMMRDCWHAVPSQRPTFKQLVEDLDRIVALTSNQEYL
How it was run: (§2)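 32P transfer from γ32P-ATP (50 µM ATP) to poly(Glu,Tyr) 4:1 was measured over 10 min at 25°C and counted after TCA precipitation onto filters, minus the no-enzyme background. Enzyme was baculovirus/SF9 lysate of the kinase domain, preincubated 10 min with inhibitor in Hepes pH 7.0, MnCl2, vanadate.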

[3] = biological target: T3, mouse PDGF-β receptor tyrosine kinase (Mus musculus, UniProt P05622); assay: PDGF receptor tyrosine kinase assay (32P incorporation into glutamate-tyrosine co-polymer); format: biochemical; conditions: for IC50: read-out: PDGFr-TK IC50
T3 construct: amplify a fragment of DNA that codes for the intracellular tyrosine kinase domain; made in house; host or cells: SF9 insect cells (baculovirus)
T3 sequence (P05622 599-961 limits assumed): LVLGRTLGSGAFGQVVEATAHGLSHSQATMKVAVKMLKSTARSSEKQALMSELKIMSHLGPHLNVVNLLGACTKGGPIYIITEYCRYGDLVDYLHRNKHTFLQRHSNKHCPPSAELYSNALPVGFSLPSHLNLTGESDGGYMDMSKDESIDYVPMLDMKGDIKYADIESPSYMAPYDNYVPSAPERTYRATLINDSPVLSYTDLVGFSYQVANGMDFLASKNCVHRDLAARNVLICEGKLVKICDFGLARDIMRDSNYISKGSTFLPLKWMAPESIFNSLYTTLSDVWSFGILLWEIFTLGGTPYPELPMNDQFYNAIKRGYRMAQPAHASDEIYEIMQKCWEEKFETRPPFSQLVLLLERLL
How it was run: as §2

C-src kinase = biological target: T4, C-src kinase (Homo sapiens, UniProt P12931); assay: C-src kinase assay (poly GluTyr substrate); format: biochemical; conditions: for IC50: read-out: C-src TK IC50; for inhibition at 50 µM: read-out: C-src TK % Inhibition at 50 µM
T4 construct: made in house; host or cells: baculovirus infected insect cells
T4 sequence (P12931 whole entry): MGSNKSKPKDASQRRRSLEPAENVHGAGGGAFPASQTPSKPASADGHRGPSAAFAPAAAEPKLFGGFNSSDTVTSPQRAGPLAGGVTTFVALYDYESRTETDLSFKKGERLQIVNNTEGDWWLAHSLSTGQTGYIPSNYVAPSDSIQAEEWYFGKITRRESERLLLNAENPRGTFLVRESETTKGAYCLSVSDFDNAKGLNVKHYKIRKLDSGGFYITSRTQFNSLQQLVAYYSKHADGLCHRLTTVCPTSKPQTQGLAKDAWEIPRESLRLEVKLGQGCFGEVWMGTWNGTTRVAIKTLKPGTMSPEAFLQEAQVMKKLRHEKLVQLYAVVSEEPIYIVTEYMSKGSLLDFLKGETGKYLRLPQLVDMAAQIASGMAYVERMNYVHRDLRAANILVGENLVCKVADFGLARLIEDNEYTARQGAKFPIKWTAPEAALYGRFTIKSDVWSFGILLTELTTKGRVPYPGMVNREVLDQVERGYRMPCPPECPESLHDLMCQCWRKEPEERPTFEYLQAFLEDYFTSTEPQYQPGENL

SW-620 = assay: Soft agar colony formation, human colon adenocarcinoma cells; format: cell-based; conditions: SW-620, 336 h, colony formation in 0.3% soft agar, generally 2 weeks, read-out: Inhibition of Human Colon Adenocarcinoma IC50, SW-620
Method: as §1

HT-29 = assay: as above; format: cell-based; conditions: HT-29, 336 h, colony formation in 0.3% soft agar, generally 2 weeks, read-out: Inhibition of Human Colon Adenocarcinoma IC50, HT-29
Method: as §1

[4] = colony formation in 0.3% soft agar, generally 2 weeks

IC50 [1] [nM]	IC50 [3] [nM]	IC50 (C-src kinase) [nM]	IC50 (SW-620) [nM]	IC50 ([2]; read-out: FGFr-TK IC50) [nM]	IC50 (HCT-8; [4]) [nM]	IC50 (HT-29) [nM]	inhibition at 50 µM (C-src kinase) [%]	inhibition at 50 µM [1] [%]	inhibition at 50 µM ([3]; read-out: PDGFr-TK % Inhibition at 50 µM) [%]	Compound	IC50 (HCT-8) [nM]	IC50 [2] [nM]
	1680	70	1100	3010						Cn1c(=O)c(-c2c(Cl)cccc2Cl)cc2cnc(Nc3ccc(Cl)cc3)nc21 [Example 56, 2-(4-Chlorophenylamino)-6-(2,6-dichlorophenyl)-8-methyl-8H-pyrido[2,3-d]pyrimidin-7-one]		
89	440	50	520	646	250	740				Cn1c(=O)c(-c2c(Cl)cccc2Cl)cc2cnc(Nc3ccc4c(c3)OCO4)nc21 [Example 57, 2-(Benzo[1,3]dioxol-5-ylamino)-6-(2,6-dichlorophenyl)-8-methyl-8H-pyrido[2,3-d]pyrimidin-7-one]		
140	1010			1050	1000					Cc1ccc(Nc2ncc3cc(-c4c(Cl)cccc4Cl)c(=O)n(C)c3n2)cc1 [Example 63, 6-(2,6-Dichlorophenyl)-8-methyl-2-p-tolylamino-8H-pyrido[2,3-d]pyrimidin-7-one]		
120	593	79		214		1110				CCn1c(=O)c(-c2c(Cl)cccc2Cl)cc2cnc(Nc3ccccc3)nc21 [Example 69, 6-(2,6-Dichloropherlyl)-8-ethyl-2-pherlylamino-8H-pyrido[2,3-d]pyrimidin-7-one]		
	475	70		109		3500				CCn1c(=O)c(-c2c(Cl)cccc2Cl)cc2cnc(NCCCN3CCN(C)CC3)nc21 [Example 70, 6-(2,6-Dichlorophenyl)-8-ethyl-2-[3-(4-methyl-piperazin-1-yl)-propylamino]-8H-pyrido[2,3-d]pyrimidin-7-one]		
21	353			141			0			CCn1c(=O)c(-c2c(Cl)cccc2Cl)cc2cnc(Nc3ccc(O)cc3)nc21 [Example 75, 6-(2,6-Dichlorophenyl)-8-ethyl-2-(4-hydroxyphenylamino)-8H-pyrido[2,3-d]pyrimidin-7-one]		
300	2380			466			33			CCOc1ccc(Nc2ncc3cc(-c4c(Cl)cccc4Cl)c(=O)n(CC)c3n2)cc1 [Example 76, 6-(2,6-Dichlorophenyl)-2-(4-ethoxyphenylamino)-8-ethyl-8H-pyrido[2,3-d]pyrimidin-7-one]		
94	1110	19		124						CCn1c(=O)c(-c2c(Cl)cccc2Cl)cc2cnc(Nc3ccc(OC)c(OC)c3)nc21 [Example 77, 6-(2,6-Dichlorophenyl)-2-(3,4-dimethoxyphenylamino)-8-ethyl-8H-pyrido[2,3-d]pyrimidin-7-one]		
97	1690			143			46			CCn1c(=O)c(-c2c(Cl)cccc2Cl)cc2cnc(Nc3cc(OC)c(OC)c(OC)c3)nc21 [Example 78, 6-(2,6-Dichlorophenyl)-8-ethyl-2-(3,4,5-trimethoxyphenylamino)-8H-pyrido[2,3-d]pyrimidin-7-one]		
59	1180	19								COc1cc(Nc2ncc3cc(-c4c(Cl)cccc4Cl)c(=O)n(C)c3n2)cc(OC)c1 [Example 83, 6-(2,6-Dichlorophenyl)-2-(3,5-dimethoxypherlylamino)-8-methyl-8H-pyrido[2,3-d]pyrimidin-7-one]		333
630	390	23		250						COC(=O)Cc1ccc(Nc2ncc3cc(-c4c(Cl)cccc4Cl)c(=O)n(C)c3n2)cc1 [Example 84, {4-[6-(2,6-Dichlorophenyl)-8-methyl-7-oxo-7,8-dihydro-pyrido[2,3-d]pyrimidin-2-ylamino]phenyl]-acetic acid, methyl ester]		
1320	370	13		560						COc1ccc(Nc2ncc3cc(-c4c(Cl)cccc4Cl)c(=O)n(C)c3n2)cn1 [Example 85, 6-(2,6-Dichlorophenyl)-2-(6-methoxypyridin-3-ylamino)-8-methyl-8H-pyrido[2,3-d]pyrimidin-7-one]		
130	70	9		61						Cn1c(=O)c(-c2c(Cl)cccc2Cl)cc2cnc(Nc3ccc(CC(=O)O)cc3)nc21 [Example 86, {4-[6-(2,6-Dichlorophenyl)-8-methyl-7-oxo-7,8-dihydro-pyrido[2,3-d]pyrimidin-2-ylamino]phenyl}-acetic acid]		
150	140	6		110						Cn1c(=O)c(-c2c(Cl)cccc2Cl)cc2cnc(Nc3cccc(C(=O)O)c3)nc21 [Example 90, 3-[6-(2,6-Dichlorophenyl)-8-methyl-7-oxo-7,8-dihydro-pyrido[2,3-d]pyrimidin-2-ylamino]-benzoic acid]		
	5050	158		1190				87		Nc1ncc2cc(-c3c(Cl)cccc3Cl)c(=O)n(Cc3ccccc3)c2n1 [Example 108, 2-Amino-8-benzyl-6-(2,6-dichlorophenyl)-8H-pyrido[2,3-d]pyrimidin-7-one]		
62	9290	240		3370						Nc1ncc2cc(-c3c(Cl)cccc3Cl)c(=O)n(Cc3cccc(Br)c3)c2n1 [Example 109, 2-Amino-8-(3-bromobenzyl)-6-(2,6-dichlorophenyl)-8H-pyrido[2,3-d]pyrimidin-7-one]		
		17200		20300				64	25	COC(=O)c1ccc(Cn2c(=O)c(-c3c(Cl)cccc3Cl)cc3cnc(N)nc32)cc1 [Example 110, 4-[2-Amino-6-(2,6-dichlorophenyl)-7-oxo-7H-pyrido[2,3-d]pyrimidin-8-yl-methyl]-benzoic acid methyl ester]		
1400	3150	41		1500						Nc1ncc2cc(-c3c(Cl)cccc3Cl)c(=O)n(Cc3c(Cl)cccc3Cl)c2n1 [Example 111, 2-Amino-8-(2,6-dichlorobenzyl)-6-(2,6-dichlorophenyl)-8H-pyrido[2,3-d]pyrimidin-7-one]		
	11200	1160		9100				19		COc1ccc(Cn2c(=O)c(-c3c(Cl)cccc3Cl)cc3cnc(N)nc32)cc1 [Example 112, 2-Amino-6-(2,6-dichlorophenyl)-8-(4-methoxyhenzyl)-8H-pyrino[2,3-d]pyrimidin-7-one]		
3200	5170	1090		3310						Nc1ncc2cc(-c3c(Cl)cccc3Cl)c(=O)n(CCCc3ccccc3)c2n1 [Example 114, 2-Amino-6-(2,6-dichlorophenyl)-8-(3-phenylpropyl)-8H-pyrido[2,3-d]pyrimidin-7-one]		
180	152	1380		1960						CCn1c(=O)c(-c2ccccc2)cc2cnc(Nc3ccccc3)nc21 [Example 116, 8-Ethyl-6-phenyl-2-phenylamino-8H-pyrido[2,3-d]-pyrimidin-7-one]		

Compound	IC50 [1] [nM]	IC50 [3] [nM]	IC50 (C-src kinase) [nM]	IC50 (SW-620) [nM]	IC50 ([2]; read-out: FGFr-TK IC50) [nM]	IC50 (HCT-8; [4]) [nM]	IC50 (HT-29) [nM]	inhibition at 50 µM (C-src kinase) [%]	inhibition at 50 µM [1] [%]	inhibition at 50 µM ([3]; read-out: PDGFr-TK % Inhibition at 50 µM) [%]	IC50 (HCT-8) [nM]	IC50 [2] [nM]
CN1CCN(CCCNc2ncc3cc(-c4c(Cl)cccc4Cl)c(=O)n(C)c3n2)CC1 [Example 38, 6-(2,6-Dichlorophenyl)-8-methyl-2-[3-(4-methylpiperazin-1-yl)-propylamino]-8H-pyrido[2,3-d]pyrimidin-7-one]	8700	1090	3								3150	230

From EP0823908B1, “PYRIDO[2,3-d]PYRIMIDINES FOR INHIBITING PROTEIN TYROSINE KINASE MEDIATED [sequence] PROLIFERATION” (Warner-Lambert Company LLC, priority 1995, dated 1996)
